Series [1] can be described thus: Dansyl polymyxin B (DPX) displacement assay. The format is binding, P. aeruginosa. The note with it: concentration at which 50% of the maximal DPX was displaced from the LPS; read-out: I50 of DPX displacement. As to the method: Peptides that bind lipopolysaccharide are thought to potentially function as anti-endotoxins. The binding of various CP peptides to P. aeruginosa H103 lipopolysaccharide (LPS) was measured in a dansyl polymyxin B (DPX) displacement assay as described by Moore et al. (AAC, 26 (1986) 496-500). […] Purified LPS was saturated with DPX by titrating LPS with samples of DPX until maximum fluorescence was reached. Fluorescence was measured in a Perkin-Elmer 650-10S fluorescence spectrophotometer and displacement of DPX was measured as a decrease in fluorescence upon the addition of an antimicrobial peptide.
Each peptides I50 value, which is the concentration at which 50% of the maximal DPX was displaced from the LPS, is shown. Also shown is the Imax value, which represents the maximum displacement of […] expressed as a percentage, where 100% indicates displacement of all bound DPX.

Series [2] has as its system human red blood cells. Kind of series: Lysis of red blood cells. The format is cell-based. As to the method: Freshly collected human blood was mixed with heparin and centrifuged to remove the buffy coat. The resulting erythrocytes were washed three times in 0.85% saline and stored at 4° C. Serial dilutions of the peptides in saline were prepared in round bottomed microtitre plates using 100 μl volumes. Red blood cells were diluted with saline to 1/25 of the packed volume of cells and 50 μl of red blood cells were added to each well. Plates were incubated while rocking at 37° C., and the concentration of peptide required for red blood cell lysis of more than 80% of cells (i.e., visible lysis) was determined at 4 and 24 hours (Table 7).

A short description of series [3]: Mortality after injection of peptide in mice. The format is in vivo. Particulars: 200 μg peptide IP. As to the method:
The ability of indolicidin and variants to protect against LPS-induced endotoxemia was assessed in vivo. Mice (8-10 weeks old) were injected intraperitoneally (IP) with 20 mg D-galactosamine (Dgal) to sensitive them to LPS according to the model of Galanos (Galanos, C., M. A., Freudenberg and W. Reutter, 1979, Galactosamine sensitization to the lethal effects of endotoxin. Proc. Natl. Acad. Sci. USA 76:5939), followed by 200 μg peptide in 100 μl. Immediately afterwards LPS (10 μg) in 100 μl was injected. The mice were observed 24 hours after injections and survivors noted. […] When Dgal and LPS were also injected, that 200 μg of indolicidin reduced mortality reduced at 24 hours from 100% in controls to 60%.

Series [4] deals with T-lymphocytes.
Series [5] deals with Candida albicans C627. The format is cell-based. The note with it: C627, 24 h.
Series [6] concerns Staphylococcus aureus RN4220. It is filed as cell-based. Particulars: RN4220, 24 h. As to the method:
(§1) Any of the art-known methods for measuring antimicrobial activity of peptides can be used in characterizing the peptides of the invention. In these examples, conventional methods were used to determine the minimal inhibitory concentration (MIC) of a peptide in a liquid medium (Amsterdam. Antibiotics in Laboratory Medicine, Williams and Wilkins, Baltimore (1991) 72-78). Briefly, overnight cultures of the test organisms (described below) were diluted to produce an inoculum containing approximately 10^4 to 10^5 organisms. The inoculum size was confirmed by counting the number of organisms on plates that were inoculated at the same time as the liquid cultures.
(§2) The concentration of peptide was measured by assaying for free amino groups using a dinitrophenylation assay, with polymyxin B serving as a standard. Doubling dilutions of peptide were performed (32 μg/ml-0.25 μg/ml) in 100 μl volumes in a 96-well mictrotiter plate, and all wells were subsequently inoculated with the diluted culture of the test organism. After 24 hours of incubation at 37° C., the assay was read. The MIC value is the concentration of peptide at which the growth of the test organism was reduced by 50%. The number of cells in the culture inoculum was calculated from the plate count after incubating the plate for 24 hours at 37° C. The medium used for cell culture and dilution in this assay was Luria broth (LB). Each peptide was tested three times against each organism, and the MIC values presented below are the mean values of the three experiments.

The test system of series [7] is Staphylococcus epidermidis C621. It is filed as cell-based. Particulars: C621, 24 h. As to the method:
as §1, §2

Series [8] relates to E. coli UB1005. The format is cell-based. The note with it: UB1005, 24 h. As to the method: as §1, §2
Series [9] relates to Pseudomonas aeruginosa K799. The format is cell-based. The note with it: K799, 24 h. As to the method:
as §1, §2

Where no end group is shown, it is not given here.

In the case of `[Mg+2]` [Mg^2+ ions, Mg^2+], the IC50 in [1] was about 620 µM.

Regarding ILKKWPWWPWRRK [CP-11], in [2], the “Lowest concentration causing lysis, 4 hours” value was over 128 µg/mL and the “Lowest concentration causing lysis, 24 hours” value was over 128 µg/mL. Further, in [3], the “Mortality after injection of peptide” value was “did not cause mortality”. Further, the “Toxicity to T-lymphocytes compared with indolicidin” value in [4] is recorded as “less toxic than indolicidin”. The “MIC C. albicans” value in series [5] was found to be 8 µg/mL. Moreover, in series [6], the “MIC S. aureus” value was 16 µg/mL. Moreover, the “MIC S. epidermidis” value in series [7] was determined as 2 µg/mL. Moreover, in series [8], the “MIC E. coli” value was 4 µg/mL. Moreover, in [9], the “MIC P. aeruginosa” value was 16 µg/mL.

(Values after patent US7390873B2, “Antimicrobial cationic peptides” (University of British Columbia, priority 1995, dated 2008).)
